Earlier results, collected in patent publication US20250312332A1, “TREATMENT OF MUSCLE FIBROSIS” (University of Newcastle upon Tyne, priority 2022, published 2025).
Counter-ions that a name gives are not always drawn. Like-named read-outs stand apart in the source and are kept apart here.

Legend:
[1] = monkey eyes; cited from earlier work
MRCKα = MRCKα (Homo sapiens, UniProt Q5VT25); details: cited from earlier work
ROCK1 = ROCK1 (Homo sapiens, UniProt Q13464); details: cited from earlier work
ROCK2 = ROCK2 (Homo sapiens, UniProt O75116); details: cited from earlier work
Sequence of ROCK2 (O75116 whole entry): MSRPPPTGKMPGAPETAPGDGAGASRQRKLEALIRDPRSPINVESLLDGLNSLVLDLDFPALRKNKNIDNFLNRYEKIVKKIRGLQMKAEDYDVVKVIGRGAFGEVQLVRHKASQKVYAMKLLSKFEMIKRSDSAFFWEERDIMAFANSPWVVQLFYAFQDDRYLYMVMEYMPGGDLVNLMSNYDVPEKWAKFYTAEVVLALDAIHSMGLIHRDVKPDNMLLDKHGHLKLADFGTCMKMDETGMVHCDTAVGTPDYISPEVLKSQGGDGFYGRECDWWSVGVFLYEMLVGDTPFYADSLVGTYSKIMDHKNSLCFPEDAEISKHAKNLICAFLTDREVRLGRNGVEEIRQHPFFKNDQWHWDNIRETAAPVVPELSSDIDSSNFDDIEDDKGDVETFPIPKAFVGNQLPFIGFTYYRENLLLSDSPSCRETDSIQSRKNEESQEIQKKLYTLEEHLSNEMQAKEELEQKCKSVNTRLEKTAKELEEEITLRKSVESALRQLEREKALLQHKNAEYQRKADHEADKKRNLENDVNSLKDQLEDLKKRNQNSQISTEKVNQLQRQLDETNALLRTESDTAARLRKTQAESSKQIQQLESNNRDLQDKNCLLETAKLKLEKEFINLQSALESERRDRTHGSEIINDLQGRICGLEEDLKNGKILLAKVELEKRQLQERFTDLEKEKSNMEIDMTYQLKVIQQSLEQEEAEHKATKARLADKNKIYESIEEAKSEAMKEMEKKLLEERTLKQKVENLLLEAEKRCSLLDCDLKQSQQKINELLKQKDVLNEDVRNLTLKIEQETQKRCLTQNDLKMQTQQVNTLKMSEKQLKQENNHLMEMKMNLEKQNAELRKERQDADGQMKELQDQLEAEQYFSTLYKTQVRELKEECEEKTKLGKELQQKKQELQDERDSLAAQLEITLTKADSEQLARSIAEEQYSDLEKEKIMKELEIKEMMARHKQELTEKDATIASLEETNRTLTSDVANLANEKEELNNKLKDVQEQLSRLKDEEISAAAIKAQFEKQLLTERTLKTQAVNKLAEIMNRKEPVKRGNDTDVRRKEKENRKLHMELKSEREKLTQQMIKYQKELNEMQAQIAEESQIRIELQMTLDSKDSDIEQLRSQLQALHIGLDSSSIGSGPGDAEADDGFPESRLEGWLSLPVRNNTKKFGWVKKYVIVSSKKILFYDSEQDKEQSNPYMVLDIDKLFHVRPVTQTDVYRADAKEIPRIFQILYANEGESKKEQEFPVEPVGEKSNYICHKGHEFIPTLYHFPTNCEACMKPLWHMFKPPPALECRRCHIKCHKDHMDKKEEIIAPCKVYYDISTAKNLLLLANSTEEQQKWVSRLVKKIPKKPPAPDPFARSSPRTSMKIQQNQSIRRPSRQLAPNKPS

[2] = test system: myosin II light chain (MLC) phosphorylation induced by MRCKβ; details: in vitro; cited from earlier work
PASMC = details: cited from earlier work
[3] = after transient middle cerebral artery occlusion; cited from earlier work
Rho signaling = details: cited from earlier work
[4] = test system: PC-3 prostate cancer cell; details: in vitro; cited from earlier work
[5] = insulin-resistant mice; cited from earlier work
PC-3 cell = details: read-out: IC50 for PC-3 cell migration; cited from earlier work
MKL1 expression = details: 25 μM; cited from earlier work
HMG-COA reductase = HMG-COA reductase (Homo sapiens, UniProt P04035); details: cited from earlier work
MDA-MB-231 cells = details: cited from earlier work
MRCK = details: read-out: IC50 against MRCK; cited from earlier work
MLCK = details: cited from earlier work; for Ki: read-out: Ki for MLCK / MLC-kinase
neuronal cultures = details: cited from earlier work
ROCK [6] = details: read-out: Ki (ROCK / Rho kinase); cited from earlier work
PKC = details: cited from earlier work
[7] = biological target: Leukemia-associated Rho guanine nucleotide exchange factor (LARG) (Homo sapiens, UniProt Q9NZN5); details: cited from earlier work
Sequence of Leukemia-associated Rho guanine nucleotide exchange factor (LARG) (Q9NZN5 whole entry, species assumed): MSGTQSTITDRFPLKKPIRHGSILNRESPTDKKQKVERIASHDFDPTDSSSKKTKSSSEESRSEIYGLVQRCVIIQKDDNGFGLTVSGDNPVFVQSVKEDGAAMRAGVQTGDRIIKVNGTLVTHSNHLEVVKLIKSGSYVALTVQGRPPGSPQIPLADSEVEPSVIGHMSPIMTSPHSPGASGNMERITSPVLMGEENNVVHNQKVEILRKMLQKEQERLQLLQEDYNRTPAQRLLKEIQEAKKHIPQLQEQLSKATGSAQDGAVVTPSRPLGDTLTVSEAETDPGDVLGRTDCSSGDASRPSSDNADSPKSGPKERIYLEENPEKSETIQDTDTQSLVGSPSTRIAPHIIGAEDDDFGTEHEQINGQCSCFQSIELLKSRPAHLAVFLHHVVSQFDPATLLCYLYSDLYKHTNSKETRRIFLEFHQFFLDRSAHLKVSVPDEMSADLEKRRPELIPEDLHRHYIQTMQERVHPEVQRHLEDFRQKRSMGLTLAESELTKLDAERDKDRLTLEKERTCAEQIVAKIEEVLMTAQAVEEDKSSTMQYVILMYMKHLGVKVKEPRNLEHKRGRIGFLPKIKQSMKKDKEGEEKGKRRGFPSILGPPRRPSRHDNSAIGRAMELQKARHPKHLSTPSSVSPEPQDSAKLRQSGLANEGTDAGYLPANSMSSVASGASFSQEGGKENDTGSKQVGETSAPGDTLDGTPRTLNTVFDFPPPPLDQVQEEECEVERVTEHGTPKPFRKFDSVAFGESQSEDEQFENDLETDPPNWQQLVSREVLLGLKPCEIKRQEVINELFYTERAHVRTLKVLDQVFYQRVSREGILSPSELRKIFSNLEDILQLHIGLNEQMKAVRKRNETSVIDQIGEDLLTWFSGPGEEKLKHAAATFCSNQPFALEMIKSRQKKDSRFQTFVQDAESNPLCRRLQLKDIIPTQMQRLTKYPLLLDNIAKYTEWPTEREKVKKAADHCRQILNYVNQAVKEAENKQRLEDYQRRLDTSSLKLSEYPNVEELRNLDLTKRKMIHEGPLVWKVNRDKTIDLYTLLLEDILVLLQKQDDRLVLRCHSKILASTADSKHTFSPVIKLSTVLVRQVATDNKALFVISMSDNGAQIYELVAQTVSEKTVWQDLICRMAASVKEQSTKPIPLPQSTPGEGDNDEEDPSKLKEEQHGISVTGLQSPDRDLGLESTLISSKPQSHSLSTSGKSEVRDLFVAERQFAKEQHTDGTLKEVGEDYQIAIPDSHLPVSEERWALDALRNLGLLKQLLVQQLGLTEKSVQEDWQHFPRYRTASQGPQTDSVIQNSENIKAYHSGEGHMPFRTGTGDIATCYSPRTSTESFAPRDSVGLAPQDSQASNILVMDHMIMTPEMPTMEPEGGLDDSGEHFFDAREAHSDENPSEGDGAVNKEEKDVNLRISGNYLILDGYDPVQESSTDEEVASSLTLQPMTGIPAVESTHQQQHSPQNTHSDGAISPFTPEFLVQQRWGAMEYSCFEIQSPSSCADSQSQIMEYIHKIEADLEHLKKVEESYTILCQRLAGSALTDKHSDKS

NIH 3T3 cells = details: 10-30 μM, 24 hours; cited from earlier work
[8] = test system: other Rho GTPases (such as Cdc42 or RhoA); details: cited from earlier work
Rac1 = Rac1 (Homo sapiens, UniProt P63000); details: cited from earlier work
[9] = spontaneously hypertensive rat; cited from earlier work
[10] = biological target: cGMP-dependent protein kinase (PKG); details: cited from earlier work
PKA = details: cited from earlier work
rat aorta = details: cited from earlier work
[11] = in vitro; cited from earlier work
ROCK [12] = details: read-out: Kds, binding to ROCK; cited from earlier work
[13] = test system: Rab2, Rab7, H-Ras, Rac1, Rac 2 and RhoA wild-type; details: cited from earlier work
Cdc42 = Cdc42 (Homo sapiens, UniProt P60953); details: cited from earlier work
Sequence of Cdc42 (P60953 whole entry): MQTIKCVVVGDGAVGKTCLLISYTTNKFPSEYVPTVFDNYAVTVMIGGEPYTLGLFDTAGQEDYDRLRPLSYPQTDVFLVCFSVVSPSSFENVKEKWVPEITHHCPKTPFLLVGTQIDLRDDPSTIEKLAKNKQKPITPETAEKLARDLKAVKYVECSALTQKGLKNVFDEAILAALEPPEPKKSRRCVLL

granulocytes = details: 50 μM; for 15 min; cited from earlier work
RhoA = RhoA (Homo sapiens, UniProt P61586); details: read-out: Kd for RhoA (RhoA subfamily Rho GTPases); cited from earlier work
Sequence of RhoA (P61586 whole entry): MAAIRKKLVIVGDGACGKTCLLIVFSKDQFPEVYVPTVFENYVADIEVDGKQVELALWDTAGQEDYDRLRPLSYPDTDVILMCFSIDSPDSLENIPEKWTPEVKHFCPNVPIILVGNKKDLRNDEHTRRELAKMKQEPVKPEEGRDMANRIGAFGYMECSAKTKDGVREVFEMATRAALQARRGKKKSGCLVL

[14] = test system: Cdc42 or Rac1, nor the GEF, LARG; details: cited from earlier work
B16BL6 and 4T1 cells = details: murine animal models; cited from earlier work
rat ROCK-2 = rat ROCK-2 (Rattus norvegicus, UniProt Q62868); details: cited from earlier work
[15] = test system: ROCK-mediated phosphorylation of MYPTT696; details: thoracic aorta of spontaneously hypertensive rats; cited from earlier work
[16] = 0.1%, 0.3%, and 0.5%, cited from earlier work
B16 melanoma [17] = details: cited from earlier work
B16 melanoma [18] = details: cited from earlier work; remark: listed apart in the source
RAVSMC = details: LPS plus INF-y; 18 hours; read-out: IC50 for accumulation of nitrite in RAVSMC; cited from earlier work
iNOS gene expression = details: 10-100 μM; 18 hours; cited from earlier work
RAW 264.7 = details: LPS plus INF-y; 18 hours; read-out: IC50 for accumulation of nitrite in RAW 264.7; cited from earlier work
[19] = test system: T47D and CAMA-1 breast cancer cells; details: T47D and CAMA-1 cells; cited from earlier work
CaM kinase II = details: cited from earlier work

Sequence of ROCK1 (Q13464 whole entry): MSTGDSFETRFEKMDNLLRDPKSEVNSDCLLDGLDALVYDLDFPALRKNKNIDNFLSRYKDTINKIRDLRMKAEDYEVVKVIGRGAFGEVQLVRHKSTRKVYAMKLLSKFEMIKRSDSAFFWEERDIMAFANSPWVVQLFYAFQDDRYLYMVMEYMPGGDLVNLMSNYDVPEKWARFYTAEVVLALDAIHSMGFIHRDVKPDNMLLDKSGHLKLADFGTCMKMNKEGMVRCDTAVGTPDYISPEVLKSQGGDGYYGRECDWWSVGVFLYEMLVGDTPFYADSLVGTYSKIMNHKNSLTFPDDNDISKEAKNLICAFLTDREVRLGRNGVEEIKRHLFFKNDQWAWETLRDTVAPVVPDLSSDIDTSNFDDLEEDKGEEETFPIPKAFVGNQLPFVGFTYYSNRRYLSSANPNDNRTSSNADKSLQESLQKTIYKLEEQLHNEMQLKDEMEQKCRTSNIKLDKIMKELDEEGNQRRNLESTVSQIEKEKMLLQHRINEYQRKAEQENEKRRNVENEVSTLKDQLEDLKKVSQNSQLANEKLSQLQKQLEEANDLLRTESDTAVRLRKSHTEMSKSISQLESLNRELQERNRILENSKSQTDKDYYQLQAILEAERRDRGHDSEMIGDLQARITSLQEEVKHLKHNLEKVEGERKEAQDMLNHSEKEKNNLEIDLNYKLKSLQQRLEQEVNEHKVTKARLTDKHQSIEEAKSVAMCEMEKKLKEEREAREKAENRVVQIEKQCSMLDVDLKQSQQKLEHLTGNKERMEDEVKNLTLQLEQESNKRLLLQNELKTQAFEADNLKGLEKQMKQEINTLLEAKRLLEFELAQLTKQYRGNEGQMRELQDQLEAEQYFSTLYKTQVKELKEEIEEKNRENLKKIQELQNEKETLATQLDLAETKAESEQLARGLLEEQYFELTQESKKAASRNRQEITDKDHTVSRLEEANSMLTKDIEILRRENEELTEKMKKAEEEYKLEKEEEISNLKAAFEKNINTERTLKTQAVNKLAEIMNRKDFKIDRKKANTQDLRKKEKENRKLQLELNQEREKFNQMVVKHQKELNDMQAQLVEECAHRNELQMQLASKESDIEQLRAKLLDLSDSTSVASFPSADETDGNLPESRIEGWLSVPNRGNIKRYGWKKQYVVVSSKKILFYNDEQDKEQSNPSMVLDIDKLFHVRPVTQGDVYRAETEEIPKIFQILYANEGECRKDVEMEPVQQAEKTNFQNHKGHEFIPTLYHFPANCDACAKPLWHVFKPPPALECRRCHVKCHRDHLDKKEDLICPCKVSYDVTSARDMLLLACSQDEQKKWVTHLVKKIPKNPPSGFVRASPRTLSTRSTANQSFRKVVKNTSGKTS

Compound: Cc1ccc(C(=O)OCc2ccc([C@@H](CN)C(=O)Nc3ccc4cnccc4c3)cc2)c(C)c1 [AR-13324]
- intraocular pressure [1]: reduced intraocular pressure

Compound: O=C(Nc1cn[nH]c1-c1ccccn1)c1nn(C2CCNCC2)cc1Cl [BDP5290]
- IC50 (MRCKα): 10 nM
- IC50 (ROCK1): 5 nM
- IC50 (ROCK2): 50 nM
- MLC phosphorylation induced by MRCKβ [2]: completely inhibits

Compound: CC(C)NC(=O)COc1cccc(-c2nc(Nc3ccc4[nH]ncc4c3)c3ccccc3n2)c1 [Belumosudil]
- Tsp-1 and CTGF mRNA levels (PASMC): significant down-regulations
- infarct volume [3]: dose-dependently reduces infarct volume

Compound: CC(ONC(=O)c1cc(C(F)(F)F)cc(C(F)(F)F)c1)C(=O)Nc1ccc(Cl)cc1 (stereo not shown) [CCG-1423]
- IC50 (Rho signaling): 1500 nM
- spontaneous PC-3 cell invasion through a Matrigel matrix [4]: selectively inhibited
- glucose uptake and tolerance [5]: improved glucose uptake and tolerance

Compound: O=C(Nc1ccc(Cl)cc1)C1CCCN(C(=O)c2cccc(-c3ccco3)c2)C1 (stereo not shown) [CCG-203971]
- IC50 (PC-3 cell): 4200 nM
- TGF-β-induced MKL1 expression (MKL1 expression): significantly represses

Compound: N[C@H](CNc1nc(-c2ccncc2)nc2sc3c(c12)CCCC3)Cc1ccccc1 [CRT0066854]
- IC50 (ROCK2): 620 nM

Compound: COCc1c(C(C)C)nc(C(C)C)c(/C=C/[C@@H](O)C[C@@H](O)CC(=O)O)c1-c1ccc(F)cc1 [Cerivastatin]
- Ki (HMG-COA reductase): 1.3 nM
- proliferation and invasiveness of MDA-MB-231 cells (MDA-MB-231 cells): inhibits proliferation and invasiveness

Compound: COc1ccc2c(c1)C[C@H](C(=O)Nc1ccc(-c3cn[nH]c3)cc1OCCN(C)C)CO2 [Chroman 1]
- IC50 (MRCK): 150 nM

Compound: Cc1cncc2cccc(S(=O)(=O)N3CCCNC[C@@H]3C)c12 [Compound H-1152]
- Ki (MLCK): 10100 nM
- neurite length (neuronal cultures; 10 μM, BMP4 and LIF cultures): increases neurite length
- neuronal survival (neuronal cultures; 0.5-10 μM): no decreased neuronal survival
- Ki (ROCK [6]): 1.6 nM
- Ki (PKC): 9270 nM

Compound: Cc1cccc(COc2cccc(/C=C3\C(=O)NN(c4ccccc4)C3=O)c2)c1 [Compound Y16]
- Kd [7]: 76 nM
- RhoA-GTP formation induced by serum (NIH 3T3 cells): inhibit RhoA-GTP formation
- serum or SDF-1α-induced phospho-MLC and phospho-FAK formation (NIH 3T3 cells): efficiently inhibits

Compound: Cc1ccc(NC(=O)c2cccc(OCc3c(C)noc3C)c2)cc1S(N)(=O)=O [Compound Z62954982]
- activity of other Rho GTPases [8]: without affecting the activity
- IC50 (Rac1): 12000 nM
- times more effective than NSC23766 (Rac1): 4 times

Compound: CCn1c(-c2nonc2N)nc2cnc(Oc3cccc(NC(=O)c4ccc(OCCN5CCOCC5)cc4)c3)cc21 [GSK269962A]
- blood pressure [9]: dose-dependent reduction in blood pressure

Compound: CC1=C(C(=O)Nc2cc3cn[nH]c3cc2F)C(c2ccc(Cl)cc2F)N=C(c2ccnc(Cl)c2)N1 (stereo not shown) [GSK-25]
- blood pressure [9]: drop in blood pressure
- IC50 (ROCK1): 7 nM

Compound: O=S(=O)(c1cccc2cnccc12)N1CCNCC1 [HA-100]
- IC50 (MLCK; read-out: IC50 for MLC-kinase): 240000 nM
- Ki (MLCK): 61000 nM
- IC50 [10]: 4000 nM
- IC50 (PKA; read-out: IC50 for cAMP-dependent protein kinase (PKA)): 8000 nM
- Ki (PKC): 6500 nM
- IC50 (PKC; read-out: IC50 for protein kinase C (PKC)): 12000 nM

Compound: O=C(O)/C=C/c1cccc(Nc2cnc3ccccc3n2)c1 [HL07]
- phenylephrine (PE)-induced contraction (rat aorta): inhibited

Compound: COc1c(B(O)O)cccc1-c1nc2ccc3[nH]ncc3c2c2c1CCC2 [HSD1590]
- migration [11]: impressive attenuation in migration
- Kd (ROCK [12]): < 2 nM

Compound: Cc1c[nH]c2ncnc(N3CCC(CN)(C(=O)Nc4cccc(OC(=O)N(C)C)c4)CC3)c12 [LX7101]
- IC50 (PKA; read-out: IC50 for PKA): < 1 nM

Compound: O=S(=O)(c1cccc2c(I)cccc12)N1CCCNCC1 [ML-07 hydrochloride]
- IC50 (MLCK; read-out: IC50 for MLCK): 300 nM

Compound: NS(=O)(=O)c1ccc(N2N=C(c3ccccc3)CC2c2ccccc2)cc1 (stereo not shown) [MLS-573151]
- activity against other GTPases family members [13]: inactive
- EC50 (Cdc42): 2000 nM
- fluorescence intensities of phagocytosed beads or bacteria (phagocytosis efficiency) (granulocytes): markedly reduced

Compound: c1cc(-c2ncco2)cc(-c2nnc(Nc3ccc4[nH]ncc4c3)s2)c1 [ROCK2-IN-2]
- IC50 (ROCK2): < 1000 nM

Compound: N[C@H](Cc1c[nH]c2ccccc12)C(=O)N/N=C/c1ccc2nccnc2c1 [Rhosin hydrochloride]
- Kd (RhoA): ~400 nM

Compound: N[C@H](Cc1c[nH]c2ccccc12)C(=O)N/N=C/c1ccc2nccnc2c1 [Rhosin]
- interaction with Cdc42 or Rac1, or LARG [14]: does not interact
- lung metastasis of B16BL6 and 4T1 cells (B16BL6 and 4T1 cells): abrogates the lung metastasis

Compound: O=c1[nH]ccc2cc(OC3CCNCC3)ccc12 [SAR407899]
- Ki (rat ROCK-2): 41 nM
- IC50 (ROCK2): 135 nM
- ROCK-mediated phosphorylation of MYPTT696 [15]: inhibits

Compound: CCCOC(=O)c1cccc(-c2cc(C(=O)Nc3ccncc3F)ccc2CN)c1 [Sovesudil]
- Intraocular Pressure (IOP) ([16]; ocular normotensive and acute hypertensive male rabbits): effectively reduces Intraocular Pressure
- hyperemia ([16]; rabbits): without causing distinct hyperemia
- IC50 (ROCK1): 3.7 nM
- IC50 (ROCK2): 2.3 nM

Compound: C[C@@H](N)c1ccc(C(=O)Nc2ccncc2)cc1 [Wf-536, (+)-(R)-4-(1-aminoethyl)-N-(4-pyridyl)benzamide monohydrochloride]
- in vivo pulmonary metastasis of B16 melanoma (B16 melanoma [17]): effectively reduced
- in vitro invasion of B16 melanoma (B16 melanoma [18]): effectively reduced

Compound: Br.Oc1cc2c(cc1O)C(Cc1cccc3ccccc13)NCC2 (stereo not shown) [YS-49]
- IC50 (RAVSMC): 22000 nM
- iNOS gene expression induced by LPS and/or cytokines (iNOS gene expression): suppresses iNOS gene expression
- IC50 (RAW 264.7): 30000 nM

Compound: COc1ccc(CC(=O)Nc2nc3c(s2)CCc2ccccc2-3)cc1OC [ZINC00881524]
- levels of ROCK1 [19]: decreases levels of ROCK1

Compound: myosin light chain kinase inhibitor peptide, sequence RKKYKYRRK (SEQ ID NO:1) (MLCK inhibitor peptide 18) [MLCK18]
- IC50 (MLCK; read-out: IC50 for MLCK): 50 nM
- inhibition of PKA (PKA): without inhibiting PKA
- selectivity vs CaM kinase II (CaM kinase II): 4000 fold
